From patent US20220009922A1, “NOVEL UREA 6,7-DIHYDRO-4H-PYRAZOLO[4,3-C]PYRIDINES ACTIVE AGAINST THE HEPATITIS B VIRUS (HBV)” (AiCuris GmbH & Co. KG, priority 2018, published 2022)

System: HBV
Experiment: not given
Conditions: Hepatitis B virus, HePAD38, 144 h, read-out: Cell Activity (EC50)

Which EC50 does the source give for `O=C(Nc1ccc(F)c(Cl)c1)N1CCc2n[nH]c(C(=O)N3CCCOCC34CC4)c2C1` [Example 11, N-(3-chloro-4-fluorophenyl)-3-{8-oxa-4-azaspiro[2.6]nonane-4-carbonyl}-2H,4H,5H,6H,7H-pyrazolo[4,3-c]pyridine-5-carboxamide] here?
Its EC50 is < 1000 nM.

How did the EC50 turn out when `COCC1(N(C)C(=O)c2n[nH]c3c2CN(C(=O)Nc2ccc(F)c(Cl)c2)CC3)CC1` [Example 2, N5-(3-chloro-4-fluorophenyl)-N3-[1-(methoxymethyl)cyclopropyl]-N3-methyl-1H,4H,5H,6H,7H-pyrazolo[4,3-c]pyridine-3,5-dicarboxamide] was run?
Its EC50 is < 1000 nM.

Which EC50 does the source give for `CN(C(=O)c1n[nH]c2c1CN(C(=O)Nc1ccc(F)c(Cl)c1)CC2)C1(COC(F)F)CC1` [Example 1, N5-(3-chloro-4-fluorophenyl)-N3-{1-[(difluoromethoxy)methyl]cyclopropyl}-N3-methyl-1H,4H,5H,6H,7H-pyrazolo[4,3-c]pyridine-3,5-dicarboxamide] here?
Its EC50 is < 1000 nM.

How did the EC50 turn out when `CC(C)OCC1(N(C)C(=O)c2n[nH]c3c2CN(C(=O)Nc2ccc(F)c(Cl)c2)CC3)CC1` [Example 5, N5-(3-chloro-4-fluorophenyl)-N3-methyl-N3-{1-[(propan-2-yloxy)methyl]cyclopropyl}-1H,4H,5H,6H,7H-pyrazolo[4,3-c]pyridine-3,5-dicarboxamide] was run?
The EC50 was < 1000 nM.

`CCOCC1(N(C)C(=O)c2n[nH]c3c2CN(C(=O)Nc2ccc(F)c(Cl)c2)CC3)CC1` [Example 6, N5-(3-chloro-4-fluorophenyl)-N3-[1-(ethoxymethyl)cyclopropyl]-N3-methyl-1H,4H,5H,6H,7H-pyrazolo[4,3-c]pyridine-3,5-dicarboxamide] was tested. Which EC50 did it give?
Its EC50 is < 1000 nM.

Which EC50 does the source give for `CN(C(=O)c1[nH]nc2c1CN(C(=O)Nc1ccc(F)c(Cl)c1)CC2)C1(COC(=O)C2(N)CC2)CC1` [Example 10, (1-{-methyl5-[(3-chloro-4-fluorophenyl)carbamoyl]-2H,4H,5H, 6H,7H-pyrazolo[4,3-c]pyridine-3-amido}cyclopropyl)methyl 1-aminocyclopropane-1-carboxylate] here?
The EC50 was < 1000 nM.

`COCC1(N(C)C(=O)c2n[nH]c3c2CN(C(=O)Nc2ccc(F)c(C#N)c2)CC3)CC1` [Example 4, N5-(3-cyano-4-fluorophenyl)-N3-[1-(methoxymethyl)cyclopropyl]-N3-methyl-1H,4H,5H,6H,7H-pyrazolo[4,3-c]pyridine-3,5-dicarboxamide] was tested. Which EC50 did it give?
Its EC50 is < 1000 nM.

For `O=C(Nc1ccc(F)c(Cl)c1)N1CCc2n[nH]c(C(=O)N3CCC(O)CC34CC4)c2C1` (stereo not shown) [Example 12, N-(3-chloro-4-fluorophenyl)-3-{7-hydroxy-4-azaspiro[2.5]octane-4-carbonyl}-2H,4H,5H,6H,7H-pyrazolo[4,3-c]pyridine-5-carboxamide], which EC50 is on record?
Its EC50 is < 1000 nM.

Which EC50 does the source give for `CN(C(=O)c1n[nH]c2c1CN(C(=O)Nc1ccc(F)c(Cl)c1)CC2)C1(CO)CC1` [Example 3, N5-(3-chloro-4-fluorophenyl)-N3-[1-(hydroxymethyl)cyclopropyl]-N3-methyl-1H,4H,5H,6H,7H-pyrazolo[4,3-c]pyridine-3,5-dicarboxamide] here?
The EC50 was < 1000 nM.

How did the EC50 turn out when `CC1Cc2n[nH]c(C(=O)N3CC(F)(F)CC34CC4)c2CN1C(=O)Nc1ccc(F)c(Cl)c1` (single isomer, unassigned) [Example 8, N-(3-chloro-4-fluorophenyl)-3-{6,6-difluoro-4-azaspiro[2.4]heptane-4-carbonyl}-6-methyl-2H,4H,5H,6H,7H-pyrazolo[4,3-c]pyridine-5-carboxamide] was run?
Its EC50 is < 1000 nM.

With `O=C(Nc1ccc(F)c(Cl)c1)N1CCc2n[nH]c(C(=O)N3CC(F)(F)CC34CC4)c2C1` [Example 7, N-(3-chloro-4-fluorophenyl)-3-{6,6-difluoro-4-azaspiro[2.4]heptane-4-carbonyl}-2H,4H,5H,6H,7H-pyrazolo[4,3-c]pyridine-5-carboxamide] as the molecule, how does the EC50 read?
Its EC50 is < 1000 nM.

Same assay, conditions: read-out: Cell Activity (EC50); HepAD38 cells, HBV DNA in supernatant at day 6, qPCR

Which EC50 does the source give for `CC1Cc2n[nH]c(C(=O)N3CC(F)(F)CC34CC4)c2CN1C(=O)Nc1ccc(F)c(Cl)c1` (single isomer, unassigned) [Example 9, N-(3-chloro-4-fluorophenyl)-3-{6,6-difluoro-4-azaspiro[2.4]heptane-4-carbonyl}-6-methyl-2H,4H,5H,6H,7H-pyrazolo[4,3-c]pyridine-5-carboxamide] here?
The EC50 was < 1000 nM.

System: HepAD38 cells
Experiment: Cell viability assay (AlamarBlue) in HepAD38 cells
Conditions: HepAD38 cells in the presence of 0.3 μg/ml tetracycline, six days incubation

With `CC1Cc2n[nH]c(C(=O)N3CC(F)(F)CC34CC4)c2CN1C(=O)Nc1ccc(F)c(Cl)c1` (single isomer, unassigned) [Example 9, N-(3-chloro-4-fluorophenyl)-3-{6,6-difluoro-4-azaspiro[2.4]heptane-4-carbonyl}-6-methyl-2H,4H,5H,6H,7H-pyrazolo[4,3-c]pyridine-5-carboxamide] as the molecule, how does the CC50 read?
The CC50 was > 10 µM.
